From patent US20170065564A1, “BIS-CYCLIC GUANIDINE COMPOUND COMPOSITIONS, METHODS OF USE AND TREATMENT THEREOF” (University of South Florida, priority 2014, published 2017)
Values after ≈ are worked out from the molar mass of the structure shown.

Assays:
[1] = system: Staphylococcus aureus; test: MIC micro broth dilution assay; format: cell-based; details: for stacked score activity, 100/MIC, S: S. aureus; for MIC: Staphylococcus aureus
How it was run: (§1)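 Strains were multidrug-resistant clinical isolates grown in LB (Gram-negative) or TSB (Gram-positive), diluted 1:1,000 before compound addition.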

[2] = system: Acinetobacter baumannii; test: MIC micro broth dilution assay; format: cell-based; details: for stacked score activity, 100/MIC, A: A. baumannii; for MIC: Acinetobacter baumannii
How it was run: as §1

[3] = system: Acinetobacter baumannii biofilm; test: Minimum biofilm eradication concentration (MBEC) assay; format: cell-based; details: 24 h biofilm, purified compound
Description: (§2) The minimum biofilm eradication concentration (MBEC) was determined in 96-well microtiter plates as follows. Broth cultures of ESKAPE strains were grown using the conditions described above. Biofilms for each of the ESKAPE pathogens were generated from these as we have previously described for S. aureus, however human serum was not used for non-staphylococcal organisms.^44 46 For all organisms, biofilms were developed by standardizing an overnight culture into fresh media to an OD600 of 0.5 and adding 150 μl into each well of a 96-well microtiter plate. […] These cultures were incubated at 37° C. overnight alongside no drug controls. After 24 hours, the media was removed from wells and the biofilm resuspended in phosphate buffered saline (PBS). Cultures were mixed by vigorous pipetting, before being serially diluted in PBS, and plated in duplicate on relevant agar. Plates were incubated at 37° C. for 24 hours, and CFUs determined by enumeration. Each analysis was performed using three technical replicates, and antibiofilm activity was determined by comparing treated to untreated samples.

[4] = system: Enterobacter cloacae biofilm; test: as above; format: cell-based; details: 24 h biofilm, purified compound
Description: as §2

[5] = system: Klebsiella pneumoniae biofilm; test: as above; format: cell-based; details: 24 h biofilm, purified compound
Description: as §2

[6] = system: Staphylococcus aureus biofilm; test: as above; format: cell-based; details: 24 h biofilm, purified compound
Description: as §2

[7] = system: human A549 cells; test: Cytotoxicity assay (MTT); format: cell-based; details: for IC50: Homo sapiens, A549, MTT, 48 hours
Description: Cytotoxicity assays were performed using human A549 cells (adenocarcinomic human alveolar epithelial cells), as described by us previously.^44 Briefly, cells were cultured in F-12K Nutrient mixture (Kaighn's Modification) media containing L-glutamine, supplemented with 10% fetal bovine serum and 1% penicillin-streptomycin for 3 days at 37° and 5% CO2. Cells were then diluted to 1.0×10^5 ml^−1 using F-12K supplemented media, and added to 96 well tissue culture plates at a volume of 100 μl. Plates were incubated for 24 hours at 37° C. and 5% CO2, allowing the cells to adhere to the plastic. […] Plates were then incubated for 48 hours at 37° C. and 5% CO2. After 48 hours the media was removed, and new media added containing MTT (3-(4, 5-dimethylthiazol-2-yl)-2, 5-diphenyltetrazolium bromide), followed by incubation for four hours at 37° C. and 5% CO2. After 4 h, 50 μl of media was removed, replaced with DMSO and incubated for ten minutes at 37° C. in order to solubilize any formazan produced. A Biotek plate reader was used to measure the absorbance of formazan production at […], and IC50 values were determined for each of the five compounds. Front runners were solvated in 45% w/v (2-hydroxypropyl)-β-cyclodextrin in water for these studies; which was also used alone as a negative control. IC50 values were determined for each compound by comparison to vehicle only controls, to assess toxicity to human cells.

[8] = system: A. baumannii; test: Resistance serial passage assay; format: cell-based, Acinetobacter baumannii; details: 8 passages, concentration doubled each day
Description: ESKAPE pathogens were grown overnight in liquid media at 37° C. These cultures were then diluted 1:100 in fresh media, and seeded into a 96-well plate. Lead bis-cyclic guanidines or control agents were added to respective wells at half MIC concentrations. Plates were then incubated for 24 hours at 37° C., with bacteria removed from these cultures on the following day, to inoculate fresh media (1:100 dilution) containing compounds at a 2-fold higher concentrations. These were then grown overnight, and the procedure repeated for a total of eight days. […] Each experiment was performed in triplicate, yielding identical results.

[9] = system: Enterococcus faecium biofilm; test: Minimum biofilm eradication concentration (MBEC) assay; format: cell-based; details: 24 h biofilm, purified compound
Description: as §2

[10] = system: Pseudomonas aeruginosa biofilm; test: as above; format: cell-based; details: 24 h biofilm, purified compound
Description: as §2

Structure (SMILES) | stacked score activity, 100/MIC, S [1] | MIC ([1]; S. aureus isolate 542) | MIC ([1]; S. aureus isolate 626) | MIC ([1]; S. aureus isolate 635) | MIC ([1]; S. aureus isolate 648) | MIC ([1]; S. aureus isolate 690) | MIC ([1]; S. aureus isolate 693) | MIC ([1]; S. aureus isolate 715) | MIC ([1]; S. aureus isolate 728) | MIC ([1]; S. aureus isolate 834) | MIC ([1]; S. aureus isolate 1043) | MIC ([1]; S. aureus isolate 1049) | MIC ([1]; purified compound, Table 1) | stacked score activity, 100/MIC, A [2] | MIC ([2]; A. baumannii isolate 1403) | MIC ([2]; A. baumannii isolate 1643) | MIC ([2]; A. baumannii isolate 1644) | MIC ([2]; A. baumannii isolate 1647) | MIC ([2]; A. baumannii isolate 1648) | MIC ([2]; A. baumannii isolate 1649) | other results
CCCCCCCN1C(=N)N(CCCC[C@H]2CNC(=N)N2CCCCC2CCCCC2)C[C@@H]1CC1CCCCC1 [Compound 16] | 20 | 2 µM (≈ 1.11 µg/mL) | 2 µM (≈ 1.11 µg/mL) | 2 µM (≈ 1.11 µg/mL) | 2 µM (≈ 1.11 µg/mL) | 2 µM (≈ 1.11 µg/mL) | 2 µM (≈ 1.11 µg/mL) | 2 µM (≈ 1.11 µg/mL) | 2 µM (≈ 1.11 µg/mL) | 2 µM (≈ 1.11 µg/mL) | 2 µM (≈ 1.11 µg/mL) | 2 µM (≈ 1.11 µg/mL) | 1.62 µM (≈ 0.902 µg/mL) | 33 | 2 µM (≈ 1.11 µg/mL) | 2 µM (≈ 1.11 µg/mL) | 2 µM (≈ 1.11 µg/mL) | 2 µM (≈ 1.11 µg/mL) | 2 µM (≈ 1.11 µg/mL) | 2 µM (≈ 1.11 µg/mL) | MIC ([2]; A. baumannii isolate 1650): 2 µM (≈ 1.11 µg/mL); MIC ([2]; A. baumannii isolate 1651): 2 µM (≈ 1.11 µg/mL); MIC ([2]; A. baumannii isolate 1653): 2 µM (≈ 1.11 µg/mL); MIC ([2]; A. baumannii isolate 1654): 2 µM (≈ 1.11 µg/mL); MIC ([2]; purified compound, Table 1): 1.62 µM (≈ 0.902 µg/mL); MBEC50 [3]: 14.13 µM; MBEC50 [4]: 12.68 µM; MBEC50 [5]: 6.28 µM; MBEC50 [6]: 7.58 µM; IC50 [7]: > 225 µM; increase in MIC after serial passage [8]: 8 fold
CCCC[C@H]1CN(CCCC[C@H]2CNC(=N)N2CCc2cccc(C(F)(F)F)c2)C(=N)N1CCCCC1CCCCC1 [Compound 2, (S)-4-butyl-3-(4-cyclohexylbutyl)-1-(4-((S)-2-imino-3-(3-(trifluoromethyl)phenethyl)imidazolidin-4-yl)butyl)imidazolidin-2-imine] | 33 | 2 µM (≈ 1.18 µg/mL) | 2 µM (≈ 1.18 µg/mL) | 2 µM (≈ 1.18 µg/mL) | 2 µM (≈ 1.18 µg/mL) | 2 µM (≈ 1.18 µg/mL) | 2 µM (≈ 1.18 µg/mL) | 2 µM (≈ 1.18 µg/mL) | 2 µM (≈ 1.18 µg/mL) | 2 µM (≈ 1.18 µg/mL) | 2 µM (≈ 1.18 µg/mL) | 2 µM (≈ 1.18 µg/mL) | 1.52 µM (≈ 0.898 µg/mL) | 25 | 2 µM (≈ 1.18 µg/mL) | 2 µM (≈ 1.18 µg/mL) | 2 µM (≈ 1.18 µg/mL) | 2 µM (≈ 1.18 µg/mL) | 2 µM (≈ 1.18 µg/mL) | 2 µM (≈ 1.18 µg/mL) | MIC ([2]; A. baumannii isolate 1650): 2 µM (≈ 1.18 µg/mL); MIC ([2]; A. baumannii isolate 1651): 2 µM (≈ 1.18 µg/mL); MIC ([2]; A. baumannii isolate 1653): 2 µM (≈ 1.18 µg/mL); MIC ([2]; A. baumannii isolate 1654): 2 µM (≈ 1.18 µg/mL); MIC ([2]; purified compound, Table 1): 1.52 µM (≈ 0.898 µg/mL); MBEC50 [3]: 15.84 µM; MBEC50 [4]: 13.44 µM; MBEC50 [9]: 29.20 µM; MBEC50 [5]: 4.65 µM; MBEC50 [10]: 30.62 µM; MBEC50 [6]: 2.18 µM; IC50 [7]: 125 µM; increase in MIC after serial passage [8]: 8 fold
CCCCCCCN1C(=N)N(CCCC[C@H]2CNC(=N)N2CCc2cccc(C(F)(F)F)c2)C[C@@H]1CCCC [Compound 1] | 50 | 2 µM (≈ 1.1 µg/mL) | 2 µM (≈ 1.1 µg/mL) | 2 µM (≈ 1.1 µg/mL) | 2 µM (≈ 1.1 µg/mL) | 2 µM (≈ 1.1 µg/mL) | 2 µM (≈ 1.1 µg/mL) | 2 µM (≈ 1.1 µg/mL) | 2 µM (≈ 1.1 µg/mL) | 2 µM (≈ 1.1 µg/mL) | 2 µM (≈ 1.1 µg/mL) | 2 µM (≈ 1.1 µg/mL) | 1.63 µM (≈ 0.898 µg/mL) | 20 | 2 µM (≈ 1.1 µg/mL) | 2 µM (≈ 1.1 µg/mL) | 2 µM (≈ 1.1 µg/mL) | 2 µM (≈ 1.1 µg/mL) | 2 µM (≈ 1.1 µg/mL) | 2 µM (≈ 1.1 µg/mL) | MIC ([2]; A. baumannii isolate 1650): 2 µM (≈ 1.1 µg/mL); MIC ([2]; A. baumannii isolate 1651): 2 µM (≈ 1.1 µg/mL); MIC ([2]; A. baumannii isolate 1653): 2 µM (≈ 1.1 µg/mL); MIC ([2]; A. baumannii isolate 1654): 2 µM (≈ 1.1 µg/mL); MIC ([2]; purified compound, Table 1): 1.63 µM (≈ 0.898 µg/mL); MBEC50 [3]: 14.82 µM; MBEC50 [4]: 13.02 µM; MBEC50 [9]: 38.84 µM; MBEC50 [5]: 6.97 µM; MBEC50 [10]: 19.68 µM; MBEC50 [6]: 13.87 µM; A549 cell recovery compared to vehicle only controls ([7]; 225 μM (highest concentration tested)): around 40%; IC50 [7]: 164 µM
